In patent publication US7727275B2, “Drug-delivery endovascular stent and method of forming the same” (Biosensors International Group, Ltd., priority 2002, dated 2010):

Tested on: restenosis (neointimal formation) in severely injured coronary vessels
Assay: Swine restenosis model, "high injury" experiment: QCA and morphometric analysis 28 days after stent implant
Format: in vivo, out-bred juvenile swine
From the text: The studies are summarized in Example 4.
Briefly, the studies compare the extent of restenosis at 28 days following stent implantation, in bare metal stents, polymer-coated stents, and polymer coated stents containing high or low concentrations of sirolimus (rapamycin) and everolimus.
It was reasoned that the most challenging treatment condition for the drug eluting stent is a severely injured vessel, as it is known that the degree of restenosis (neointimal formation) increases directly with extent of vessel injury. […]
Drug-eluting stents using a metal wire-mesh scaffold of a corrugated ring design (i.e. S-Stent) and polymer coating were implanted in out-bred juvenile swine (alternately Yucatan Minipigs for implant studies lasting longer than 28 days), using different dosings of either the drug everolimus or the drug sirolimus. At time of implant, Quantitative Coronary Angiography (QCA) was performed to measure the diameter of the vessels both before and after stent implantation. […]
A computerized imaging system Image Pro Plus 4.0 through an A.G. Heinze slide microscope for a PC-based system was used for histomorphometric measurements of: • 1. […] To quantify the degree of vascular injury, a score based on the amount and length of tear of the different wall structures was used. […]

For CO[C@H]1C[C@@H]2CC[C@@H](C)[C@@](O)(O2)C(=O)C(=O)N2CCCC[C@H]2C(=O)O[C@H]([C@H](C)C[C@@H]2CC[C@@H](OCCO)[C@H](OC)C2)CC(=O)[C@H](C)/C=C(\C)[C@@H](O)[C@@H](OC)C(=O)[C@H](C)C[C@H](C)/C=C/C=C/C=C/1C [everolimus, 40-0-(2-hydroxyl)ethyl-rapamycin], the “extent of restenosis / neointima formation (in words)” value was “better than, or at least equivalent to the 180 microgram dosage of sirolimus”.
